# DBAASP
# How the values were obtained:
# Assay in all cases: ≥ marks a high value that may be exact or a test limit, other limits are often not marked, values filed in µg/mL are converted to µM
# Yersinia pestis = tested on: Yersinia pestis
# Escherichia coli = tested on: Escherichia coli
# [1] = tested on: Mycobacterium tuberculosis
# Staphylococcus aureus MR = tested on: Staphylococcus aureus MR
# Salmonella typhimurium = tested on: Salmonella typhimurium
# Staphylococcus aureus = tested on: Staphylococcus aureus
# Neisseria meningitidis = tested on: Neisseria meningitidis
# Pseudomonas aeruginosa = tested on: Pseudomonas aeruginosa
# [2] = tested on: Escherichia coli ATCC 25922
# [3] = tested on: Staphylococcus aureus CIB 85462
# [4] = tested on: Escherichia coli CIB 84492
# [5] = tested on: Staphylococcus aureus ATCC 25923
# [6] = tested on: Aeromonas salmonicida NCIMB 1102
# [7] = tested on: Yersinia ruckeri NCIMB 2196
# [8] = tested on: Planococcus citreus NCIMB 1493
# [9] = tested on: Vibrio anguillarum NCIMB 2129
# [10] = tested on: Vibrio anguillarum NCIMB 2133
# [11] = tested on: Psychrobacter immobilis NCIMB 308
# Yersinia ruckeri VI-3629 = tested on: Yersinia ruckeri VI-3629
# [12] = tested on: Corynebacterium glutamicum ATCC 13032
# [13] = tested on: Staphylococcus aureus ATCC 9144
# [14] = tested on: Micrococcus luteus ATCC 4698
# [15] = tested on: Vibrio anguillarum VI-F258-3
# [16] = tested on: Candida albicans ATCC 90028
# [17] = tested on: Staphylococcus epidermidis RP62A
# [18] = tested on: Pseudomonas aeruginosa ATCC 27853
# [19] = tested on: Acinetobacter baumannii NM8
# [20] = tested on: Staphylococcus epidermidis RP62A/1
# [21] = tested on: Stenotrophomonas maltophilia B32/4
# [22] = tested on: Klebsiella pneumoniae ATCC 700603
# [23] = tested on: Escherichia coli ATCC 25726
# Escherichia coli 363 = tested on: Escherichia coli 363
# Vibrio anguillarum = tested on: Vibrio anguillarum
# Micrococcus luteus = tested on: Micrococcus luteus
# Aeromonas hydrophila = tested on: Aeromonas hydrophila
# [24] = tested on: Staphylococcus haemolyticus
# Vibrio harveyi = tested on: Vibrio harveyi
# Bacillus subtilis = tested on: Bacillus subtilis
# Aerococcus viridans = tested on: Aerococcus viridans
# [25] = tested on: Xanthomonas axonopodis pv. citri
# [26] = tested on: Staphylococcus aureus ATCC 29313
# [27] = tested on: Escherichia coli ATCC 8739
compound,measurement,setting,value
CC[C@H](C)[C@H](NC(=O)CNC(=O)CNC(=O)[C@H](CCSC)NC(=O)[C@H](CC(C)C)NC(=O)[C@H](CCC(=O)O)NC(=O)[C@H](CCCN=C(N)N)NC(=O)CNC(=O)[C@H](CCCN=C(N)N)NC(=O)[C@H](CCSC)NC(=O)CNC(=O)[C@@H](NC(=O)[C@H](CCCN=C(N)N)NC(=O)[C@H](CC(C)C)NC(=O)[C@@H](N)CS)[C@@H](C)CC)C(=O)NCC(=O)N[C@@H](CCCCN)C(=O)N[C@H](C(=O)N[C@@H](CCSC)C(=O)O)[C@@H](C)O [CLRIGMRGRELMGGIGKTM],MIC,Yersinia pestis,≥ 144 µM
same,MIC,Escherichia coli,144 µM
same,MIC,[1],≥ 144 µM
same,MIC,Staphylococcus aureus MR,≥ 144 µM
same,MIC,Salmonella typhimurium,≥ 144 µM
same,MIC,Staphylococcus aureus,144 µM
same,MIC,Neisseria meningitidis,≥ 144 µM
same,MIC,Pseudomonas aeruginosa,144 µM
CC[C@H](C)[C@@H]1NC(=O)[C@H](CC(C)C)NC(=O)[C@@H](NC(=O)[C@H](Cc2ccccc2)NC(=O)[C@@H](NC(=O)[C@@H](NC(=O)[C@@H]2CCCN2C(=O)[C@@H](NC(=O)[C@@H](NC(=O)[C@H](CCCCN)NC(=O)[C@H](C)NC(=O)[C@H](C)NC(=O)[C@@H](NC(=O)[C@H](CCCN=C(N)N)NC(=O)[C@H](CC(C)C)NC(=O)[C@@H](NC(=O)[C@H](C)NC(=O)[C@@H]2CCCN2C(=O)[C@H](CC(C)C)NC(=O)[C@@H](N)Cc2ccccc2)C(C)C)C(C)C)C(C)C)C(C)C)[C@@H](C)O)C(C)C)CSSC[C@@H](C(=O)O)NC(=O)[C@H](CCCCN)NC(=O)[C@H](CCCCN)NC(=O)[C@H](CO)NC1=O [FLPAVLRVAAKVVPTVFCLISKKC],MIC,[2],49.2 µM
same,MIC,[3],3.07 µM
same,MIC,[4],24.6 µM
same,MIC,[5],6.15 µM
CC[C@H](C)[C@H](NC(=O)[C@H](CC(C)C)NC(=O)CNC(=O)[C@@H](NC(=O)[C@@H](NC(=O)[C@H](Cc1cnc[nH]1)NC(=O)[C@H](Cc1cnc[nH]1)NC(=O)[C@H](CC(C)C)NC(=O)[C@@H](N)Cc1ccccc1)[C@@H](C)CC)C(C)C)C(=O)N[C@@H](Cc1cnc[nH]1)C(=O)N[C@@H](Cc1cnc[nH]1)C(=O)NCC(=O)N[C@@H](CCCCN)C(=O)N[C@@H](CC(C)C)C(=O)N[C@@H](CC(=O)O)C(=O)N[C@@H](CCSC)C(=O)N[C@@H](Cc1ccc(O)cc1)C(=O)N[C@@H](CCCN=C(N)N)C(=O)N[C@@H](CO)C(=O)N[C@@H](CC(N)=O)C(=O)N[C@@H](CC(N)=O)C(=O)O [FLHHIVGLIHHGKLDMYRSNN],MIC,[6],10 µM
same,MIC,[7],10 µM
same,MIC,[8],10 µM
same,MIC,[9],10 µM
same,MIC,[2],> 10 µM
same,MIC,[10],10 µM
same,MIC,[11],10 µM
same,MIC,Yersinia ruckeri VI-3629,10 µM
same,MIC,[12],10 µM
same,MIC,[13],10 µM
same,MIC,[14],10 µM
same,MIC,[15],10 µM
CC[C@H](C)[C@H](N)C(=O)N[C@@H](CC(C)C)C(=O)NCC(=O)N[C@@H](CCCCN)C(=O)N[C@@H](CC(C)C)C(=O)N[C@@H](CC(C)C)C(=O)N[C@@H](CO)C(=O)N[C@H](C(=O)N[C@@H](C)C(=O)N[C@@H](C)C(=O)NCC(=O)N[C@@H](CC(C)C)C(=O)N[C@@H](CC(C)C)C(=O)N[C@@H](CO)C(=O)N[C@@H](CCCCN)C(=O)N[C@@H](CC(C)C)C(N)=O)[C@@H](C)O [ILGKLLSTAAGLLSKL],MIC,[16],≥ 128 µM
same,MIC,[17],16 µM
same,MIC,[18],> 128 µM
same,MIC,[19],≥ 128 µM
same,MIC,[20],8 µM
same,MIC,[21],≥ 128 µM
same,MIC,[5],32 µM
same,MIC,[22],> 128 µM
same,MIC,[23],≥ 256 µM
CC[C@H](C)[C@H](N)C(=O)N1CCC[C@H]1C(=O)N[C@@H](C)C(=O)N[C@@H](CCSC)C(=O)N[C@@H](CCC(=O)O)C(=O)N1CCC[C@H]1C(=O)N[C@@H](C)C(=O)N[C@@H](C)C(=O)N[C@@H](CCCN=C(N)N)C(=O)N[C@H](C(=O)N[C@@H](CCCCN)C(=O)N[C@@H](CCCN=C(N)N)C(=O)N[C@@H](CO)C(=O)N1CCC[C@H]1C(=O)NCC(=O)N[C@@H](Cc1ccc(O)cc1)C(=O)NCC(=O)NCC(=O)N[C@H]1CSSC[C@@H](C(=O)NCC(=O)NCC(=O)N[C@@H](Cc2ccc(O)cc2)C(=O)NCC(=O)O)NC(=O)[C@H](C)NC(=O)[C@H](Cc2c[nH]c3ccccc23)NC(=O)[C@H](CCCN=C(N)N)NC(=O)[C@@H]2CCCN2C(=O)[C@H](CO)NC1=O)C(C)C [IPAMEPAARVKRSPGYGGCSPRWACGGYG],MIC,Escherichia coli 363,≥ 50 µM
same,MIC,Vibrio anguillarum,≥ 50 µM
same,MIC,Micrococcus luteus,25 µM
same,MIC,Aeromonas hydrophila,≥ 50 µM
same,MIC,[24],≥ 50 µM
same,MIC,Vibrio harveyi,≥ 50 µM
same,MIC,Bacillus subtilis,≥ 50 µM
same,MIC,Aerococcus viridans,12.5 µM
CC(C)C[C@H](NC(=O)[C@H](C)NC(=O)[C@@H](NC(=O)[C@H](CCCCN)NC(=O)CNC(=O)[C@@H](NC(=O)[C@@H](NC(=O)[C@H](CCCCN)NC(=O)CNC(=O)[C@H](CC(C)C)NC(=O)[C@H](CO)NC(=O)[C@H](CCCCN)NC(=O)[C@H](CC(C)C)NC(=O)[C@H](CCCCN)NC(=O)[C@H](CC(=O)O)NC(=O)[C@H](CC(C)C)NC(=O)[C@H](Cc1c[nH]c2ccccc12)NC(=O)[C@H](C)N)C(C)C)C(C)C)C(C)C)C(=O)NCC(=O)N[C@H](C(=O)N[C@@H](C)C(=O)N[C@@H](CCC(N)=O)C(=O)N[C@@H](CC(N)=O)C(=O)N[C@@H](Cc1ccc(O)cc1)C(=O)N[C@@H](CC(C)C)C(=O)N[C@@H](CC(N)=O)C(=O)N1CCC[C@H]1C(=O)N[C@@H](CCC(N)=O)C(=O)N[C@@H](CCC(N)=O)C(=O)O)C(C)C [AWLDKLKSLGKVVGKVALGVAQNYLNPQQ],MIC,[25],2 µM
same,MIC,[26],20 µM
same,MIC,[27],1.27 µM
same,MIC,[2],5 µM
same,MIC,[18],10 µM
same,MIC,[5],1.27 µM
